These results are taken from patent US6004955A, “Cyclic carbamates and isoxazolidines as IIb/IIIa antagonists” (DuPont Pharmaceuticals Company, priority 1998, dated 1999).

The structures appear in SMILES notation.

For this test, the system named is platelet aggregation (using platelet rich plasma (PRP)). The experiment in a line: Platelet Aggregation Assay (without esterase). The format is cell-based. The conditions noted are these: human platelet rich plasma. On the procedure:
Platelet Aggregation Assay: Venous blood was obtained from the arm of a healthy human donor who was drug-free and aspirin-free for at least two weeks prior to blood collection. Blood was collected into 10 mL citrated Vacutainer tubes. The blood was centrifuged for 15 minutes at 150×g at room temperature, and platelet-rich plasma (PRP) was removed. The remaining blood was centrifuged for 15 minutes at 1500×g at room temperature, and platelet-poor plasma (PPP) was removed. Samples were assayed on a aggregometer (PAP-4 Platelet Aggregation Profiler), using PPP as the blank (100% transmittance). 200 μL of PRP was added to each micro test tube, and transmittance was set to 0%. 20 μL of various agonists (ADP, collagen, arachidonate, epinephrine, thrombin) were added to each tube, and the aggregation profiles were plotted (% transmittance versus time). The results are expressed as % inhibition of agonist-inducedplatelet aggregation. For the IC50 evaluation, the test compounds were added at various concentrations prior to the activation of the platelets.
Table A below sets forth the antiplatelet activity of representative compounds of the present invention. The indicated compounds were tested for their ability to inhibit platelet aggregation (using platelet rich plasma (PRP)). The IC50 value (the concentration of antagonist which inhibits platelet aggregation by 50% relative to a control lacking the antagonist) is shown. In Table 5 the IC50 values are expressed as: +++=IC50 of <10 μM (μM=micromolar).

What is called IC50 is the concentration needed to halve the response being measured. A higher IC50 goes with a need for much substance. Molecule `Cc1noc(C)c1S(=O)(=O)N[C@@H](CNC(=O)CC1CC(c2ccc(C(=N)N)cc2)N(C)C(=O)O1)C(=O)O` (stereo partly drawn) [Example 336, Cis-3-[[[4-[4-(aminoiminomethyl)phenyl]tetrahydro-3-methyl-2-oxo-2H-1,3-oxazin-6-yl]acetyl]amino]-N-[(3,5-dimethylisoxazol-4-yl)sulfonyl]-L-alanine monohydrogenchloride] showed a 50% inhibitory concentration (IC50) of under 10 µM.

As to `Cc1cccc(S(=O)(=O)N[C@@H](CNC(=O)CC2CC(c3ccc(C(=N)N)cc3)N(C)C(=O)O2)C(=O)O)c1` (stereo partly drawn) [Example 301, Cis-3-[[[4-[4-(aminoiminomethyl)phenyl]tetrahydro-3-methyl-2-oxo-2H-1,3-oxazin-6-yl]acetyl]amino]-N-[(3-methylphenyl)sulfonyl]-L-alanine monohydrogenchloride], the IC50 is under 10 µM. `CCCCOC(=O)N[C@@H](CNC(=O)CC1CC(c2ccc(C(=N)N)cc2)N(C)C(=O)O1)C(=O)O` (stereo partly drawn) [Example 356, Cis-3-[[[4-[4-(aminoiminomethyl)phenyl]tetrahydro-3-methyl-2-oxo-2H-1,3-oxazin-6-yl]acetyl]amino]-N-(n-butyloxycarbonyl)-L-alanine monohydrogenchloride] returned a half-maximal inhibitory concentration (IC50) of under 10 µM.

With `Cc1cccc(S(=O)(=O)N[C@@H](CNC(=O)CC2CC(c3ccc(C(=N)N)cc3)N(Cc3ccccc3)C(=O)O2)C(=O)O)c1` (stereo partly drawn) [Example 322, Cis-3-[[[4-[4-(aminoiminomethyl)phenyl]tetrahydro-3-benzyl-2-oxo-2H-1,3-oxazin-6-yl]acetyl]amino]-N-[(3-methylphenyl)sulfonyl]-L-alanine monohydrogenchloride], the IC50 is under 10 µM.
